Test results taken from patent US11279733B2, “Peptide antibiotics” (priority 2017, dated 2022).
Values after ≈ are worked out from the molar mass of the structure shown. Read-outs that look alike come from different tables or passages of the source. Starred links: 1 amine or outer side, 2 acyl side, 3 side chain; linkers in the order of their positions; H or OH if unused. Positions of bridges follow the written chain, without caps; N, C: chain ends. Non-standard residues stand in square brackets, D forms with d. Residues, ends and D or L forms follow the SMILES beside them. *: point of attachment. Cholyl = C[C@H](CCC(=O)*)[C@H]1CC[C@H]2[C@@H]3[C@H](O)C[C@@H]4C[C@H](O)CC[C@]4(C)[C@H]3C[C@H](O)[C@]12C; Decanoyl(3R-OH) = CCCCCCC[C@@H](O)CC(=O)*; Butanoyl(4-OPh) = O=C(CCCOc1ccccc1)*; azaDab = NCCN(N[*:1])C(=O)[*:2]; X1 = CCCCCCCN1CCC(C(=O)*)CC1; dDab = NCC[C@@H](N)C(=O)O; X2 = CCC(C)CCC(O)CC(=O)*; dDap = NC[C@@H](N)C(=O)O; Dab = NCC[C@H](N)C(=O)O; X5 = O=C(CCCCCCCO)*

Experiments:
in vitro [1] = settings: human
Experimental: Cytotoxicity of the synthesised peptides was evaluated by comparison with commercially available colistin (polymyxin E), polymyxin B (Sigma chemical Co., St. Louis, Mo., U.S.A.) and synthetic octapeptin C4 by conducting lactate dehydrogenase (LDH) assay. CC50 values calculated based on curve fitting of dose dependent inhibition of cell growth represented the cytotoxicity of the peptide. Human kidney 2 (HK2) cells were seeded as 2000 cells per well in a 384 well cell culture plate in a final volume of 20 μL in DMEM/F12 medium (Invitrogen #11330057), in which 10% of FBS was added. Cells were incubated for 24 hours at 37° C., 5% CO2 to allow cells to attach to the plates. Similar conditions were employed for HEK293 and HepG2 cytotoxicity assays.
Cytotoxicity to HEK293 and HepG2 cells was determined using the resazurin assay (McMillian, M. K.; Li, L.; Parker, J. B.; Patel, L.; Zhong, Z.; Gunnett, J. W.; Powers, W. J.; Johnson, M. D. An improved resazurin-based cytotoxicity assay for hepatic cells; Cell Biol. Toxicol. 2002, 18, 157-173; O'Brien, J.; Wilson, I.; Orton, T.; Pognan, F. Investigation of the Alamar Blue (resazurin) fluorescent dye for the assessment of mammalian cell cytotoxicity. Eur. J. Biochem. 2000, 267, 5421-5426). In brief, HEK293 and HepG2 cells were seeded at 4000 cells/well in black-wall, clear-bottom 384-well plates (Corning, Australia) and incubated for 24 h at 37° C., 5% CO2. Compounds were then added into each well. After 24 h incubation, 5 μM resazurin was added per well and incubated at 37° C. for 2 h. Fluorescence intensity was then read using a Polarstar Omega with excitation/emission 560/590. The data was then analyzed using GraphPad Prism 6 software. CC50 values were determined using GraphPad Prism 6 software (Inc. La Jolla, Calif.).

in vitro [2] = settings: human; remark: listed apart in the source
Procedure, shortened: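 4000 cells/well, 24 h attach (37 °C, 5% CO2); compound 24 h; 5 μM resazurin 2 h, 37 °C; fluorescence ex/em 560/590. CC50 by curve fit.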

[3] = system: K. pneumoniae GN_102 PmxR; settings: GN 102 PmxR
Procedure, shortened: (§1)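 Mid-log cultures grown in Mueller Hinton broth at 37° C were tested by 2-fold broth microdilution at 5×10^5 CFU/mL final. Compounds were dissolved in water and tested over a final range of 32 to 0.015 μg/mL.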

E. coli ATCC 25922 = settings: ATCC 25922
Procedure, shortened: as §1

A. baumannii ATCC 19606 = settings: ATCC 19606
Procedure, shortened: as §1

A. baumannii GN_093 PmxR = settings: GN 093 PmxR
Procedure, shortened: as §1

[4] = system: S. aureus ATCC 25923, MSSA; settings: ATCC 25923
Procedure, shortened: as §1

[5] = system: P. aeruginosa GN_105, PmxR; settings: GN 105, PmxR
Procedure, shortened: as §1

[6] = system: K. pneumoniae GN_106, PmxR; settings: GN 106, PmxR
Procedure, shortened: as §1

P. aeruginosa ATCC 27853 = settings: ATCC 27853
Procedure, shortened: as §1

K. pneumoniae ATCC 13883 = settings: ATCC 13883
Procedure, shortened: as §1

[7] = system: P. aeruginosa GN_043, PmxR
Procedure, shortened: as §1

[8] = system: K. pneumoniae ATCC 700603, MDR; settings: ATCC 700603
Procedure, shortened: as §1

[9] = system: K. pneumoniae ATCC BAA-2146, NDM-1 pos; settings: ATCC BAA-2146
Procedure, shortened: as §1

in vitro [10] = settings: human; remark: listed apart in the source
Procedure, shortened: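 HK2 cells were seeded at 2000 per well in DMEM/F12 with 10% FBS and left to attach for 24 h at 37 °C, 5% CO2. They were then exposed for 24 h to 3-fold peptide dilutions starting from 600 μM solutions in quadruplicate. LDH release was read at 450 nm, and CC50 was fitted from dose-response curves.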

SMILES	CC50 at 24 h (in vitro [1])	CC50 at 24 h (in vitro [2])	MIC K. pneumoniae GN_102 PmxR [3]	MIC E. coli ATCC 25922 (E. coli ATCC 25922)	MIC A. baumannii ATCC 19606 (A. baumannii ATCC 19606)	MIC A. baumannii GN_093 PmxR (A. baumannii GN_093 PmxR)	MIC S. aureus ATCC 25923, MSSA [4]	MIC P. aeruginosa GN_105, PmxR [5]	MIC K. pneumoniae GN_106, PmxR [6]	MIC P. aeruginosa ATCC 27853 (P. aeruginosa ATCC 27853)	MIC K. pneumoniae ATCC 13883 (K. pneumoniae ATCC 13883)	MIC P. aeruginosa GN_043, PmxR [7]	MIC K. pneumoniae ATCC 700603, MDR [8]	MIC K. pneumoniae ATCC BAA-2146, NDM-1 pos [9]	CC50 at 24 h (in vitro [10])	MIC P. aeruginosa GN_043, PmxR ([7]; P. aeruginosa GN_043, PmxR)	further results
CC(C)C[C@@H]1NC(=O)[C@H](CCN)NC(=O)[C@H](CCN)NC(=O)[C@H](CC(C)C)NC(=O)[C@@H](Cc2ccccc2)NC(=O)[C@H](CCN)NC(=O)[C@@H](NC(=O)[C@@H](CCN)NC(=O)CCCCCCCO)CCNC1=O [compound 6522, 8OH-nC7CO-D-Dab-cyc[L-Dab-L-Dab-D-Phe-L-Leu-L-Dab-L-Dab-L-Leu]] (X5-[dDab][Dab][Dab][dF]L[Dab][Dab]L; lactam 2-C)	> 300 µM	> 300 µM	>32 µg/mL	>32 µg/mL	>32 µg/mL	>32 µg/mL	>32 µg/mL	>32 µg/mL	>32 µg/mL	2 µg/mL (≈ 1.97 µM)	>32 µg/mL	2 µg/mL (≈ 1.97 µM)	>32 µg/mL	>32 µg/mL	208 µM		
CC(C)C[C@@H]1NC(=O)[C@H](CCN)NC(=O)[C@H](CCN)NC(=O)[C@H](CC(C)C)NC(=O)[C@@H](Cc2ccccc2)NC(=O)[C@H](CCN)NC(=O)[C@@H](NC(=O)[C@@H](CCN)NC(=O)CC[C@@H](C)[C@H]2CC[C@H]3[C@@H]4[C@H](O)C[C@@H]5C[C@H](O)CC[C@]5(C)[C@H]4C[C@H](O)[C@]23C)CCNC1=O [compound 5016, cholic acid-D-Dab-cyc[L-Dab-L-Dab-D-Phe-L-Leu-L-Dab-L-Dab-L-Leu]] (Cholyl-[dDab][Dab][Dab][dF]L[Dab][Dab]L; lactam 2-C)	46 µM	48 µM	8 µg/mL (≈ 6.33 µM)	8 µg/mL (≈ 6.33 µM)	16 µg/mL (≈ 12.7 µM)	8 µg/mL (≈ 6.33 µM)	32 µg/mL (≈ 25.3 µM)	4 µg/mL (≈ 3.16 µM)	16 µg/mL (≈ 12.7 µM)	4 µg/mL (≈ 3.16 µM)	4 µg/mL (≈ 3.16 µM)	4 µg/mL (≈ 3.16 µM)	4 µg/mL (≈ 3.16 µM)	8 µg/mL (≈ 6.33 µM)	17 µM		
CCCCCCC[C@@H](O)CC(=O)N[C@H](CN)C(=O)N[C@H]1CCNC(=O)[C@H](CC(C)C)NC(=O)[C@H](CCN)NC(=O)[C@H](CCN)NC(=O)[C@H](Cc2ccccc2)NC(=O)[C@@H](CC(C)C)NC(=O)[C@H](CCN)NC1=O [compound 6427, 3(R)OH-nC9CO-D-Dap-cyc[L-Dab-L-Dab-D-Leu-L-Phe-L-Dab-L-Dab-L-Leu]] ({Decanoyl(3R-OH)}-[dDap][Dab][Dab][dL]F[Dab][Dab]L; lactam 2-C)	> 300 µM	> 300 µM	4 µg/mL (≈ 3.88 µM)	8 µg/mL (≈ 7.76 µM)	8 µg/mL (≈ 7.76 µM)	16 µg/mL (≈ 15.5 µM)	32 µg/mL (≈ 31.1 µM)	2 µg/mL (≈ 1.94 µM)	4 µg/mL (≈ 3.88 µM)	4 µg/mL (≈ 3.88 µM)	8 µg/mL (≈ 7.76 µM)		8 µg/mL (≈ 7.76 µM)	8 µg/mL (≈ 7.76 µM)	123 µM	4 µg/mL (≈ 3.88 µM)	
CC(C)C[C@@H]1NC(=O)[C@H](CCN)NC(=O)[C@H](CCN)NC(=O)[C@H](CC(C)C)NC(=O)[C@@H](Cc2ccccc2)NC(=O)[C@H](CCN)NC(=O)[C@@H](NC(=O)[C@@H](CCN)NC(=O)CCCOc2ccccc2)CCNC1=O [compound 6529, 4-phenoxybutanoic acid-D-Dab-cyc[L-Dab-L-Dab-D-Phe-L-Leu-L-Dab-L-Dab-L-Leu]] ({Butanoyl(4-OPh)}-[dDab][Dab][Dab][dF]L[Dab][Dab]L; lactam 2-C)	> 300 µM	> 300 µM	>32 µg/mL	8 µg/mL (≈ 7.72 µM)	>32 µg/mL	>32 µg/mL	>32 µg/mL	16 µg/mL (≈ 15.4 µM)	>32 µg/mL	2 µg/mL (≈ 1.93 µM)	16 µg/mL (≈ 15.4 µM)	1 µg/mL (≈ 0.965 µM)	32 µg/mL (≈ 30.9 µM)	32 µg/mL (≈ 30.9 µM)	199 µM		
CCC(C)CCC(O)CC(=O)N[C@H](CCN)C(=O)N[C@H]1CCNC(=O)[C@H](CC(C)C)NC(=O)[C@H](CCN)NC(=O)[C@H](CCN)NC(=O)[C@H](Cc2ccccc2)NC(=O)[C@H](CC(C)C)NC(=O)[C@H](CCN)NC1=O (stereo partly drawn) [compound 6371, nC5(6-Me)CH(OH)CH2CO-D-Dab-cyc[L-Dab-L-Dab-L-Leu-L-Phe-L-Dab-L-Dab-L-Leu]] (X2-[dDab][Dab][Dab]LF[Dab][Dab]L; lactam 2-C)	> 300 µM	> 300 µM	>32 µg/mL	>32 µg/mL	>32 µg/mL	>32 µg/mL	>32 µg/mL	>32 µg/mL	>32 µg/mL	32 µg/mL (≈ 31.1 µM)	>32 µg/mL		>32 µg/mL	>32 µg/mL	> 300 µM	>32 µg/mL	
CCCCCCCN1CCC(C(=O)N[C@H](CCN)C(=O)N[C@H]2CCNC(=O)[C@H](CC(C)C)NC(=O)[C@H](CCN)NC(=O)[C@H](CCN)NC(=O)[C@H](Cc3ccccc3)NC(=O)[C@@H](CC(C)C)NC(=O)[C@H](CCN)NC2=O)CC1 [compound 6516, 1-heptylpiperidine-4-carboxylic acid-D-Dab-cyc[L-Dab-L-Dab-D-Leu-L-Phe-L-Dab-L-Dab-L-Leu]] (X1-[dDab][Dab][Dab][dL]F[Dab][Dab]L; lactam 2-C)	> 300 µM	> 300 µM		16 µg/mL (≈ 14.8 µM)	>32 µg/mL		32 µg/mL (≈ 29.5 µM)	2 µg/mL (≈ 1.85 µM)		1 µg/mL (≈ 0.923 µM)	>32 µg/mL		>32 µg/mL	32 µg/mL (≈ 29.5 µM)	223 µM	0.5 µg/mL (≈ 0.461 µM)	
CCCCCCC[C@@H](O)CC(=O)N[C@H](CCN)C(=O)N[C@H]1CCNC(=O)[C@H](CC(C)C)NC(=O)N(CCN)NC(=O)[C@H](CCN)NC(=O)[C@H](CC(C)C)NC(=O)[C@@H](Cc2ccccc2)NC(=O)[C@H](CCN)NC1=O [compound 8782, 3(R)OH-nC9CO-D-Dab-cyc[L-Dab-L-DAB-D-Phe-L-Leu-L-Dab-azaDab-L-Leu]] ({Decanoyl(3R-OH)}-[dDab][Dab][Dab][dF]L[Dab][azaDab]L; lactam 2-C)	> 300 µM	> 300 µM		16 µg/mL (≈ 15.3 µM)	>32 µg/mL		16 µg/mL (≈ 15.3 µM)			2 µg/mL (≈ 1.91 µM)	32 µg/mL (≈ 30.6 µM)		32 µg/mL (≈ 30.6 µM)	>32 µg/mL			MIC K. pneumoniae Cl Koprana 10065 0661:1 PmxR [3]: >32 µg/mL; MIC A. baumannii Cl Ptyela 10073 4512:2, PmxR (A. baumannii GN_093 PmxR): >32 µg/mL; MIC P. aeruginosa PA9704, PmxR [5]: 32 µg/mL (≈ 30.6 µM); MIC K. pneumoniae Cl 183-16357-20352, PmxR [6]: >32 µg/mL; MIC, P. aeruginosa FADDI-PA070, PmxR ([7]; strain name as in Table 11): 8 µg/mL (≈ 7.65 µM)
